“Also recorded” adds a separate entry of the source. Where two headings read alike, the source gives them in different places.
Columns and labels:
CDK8/CycC = target: T1, CDK8/CycC (Homo sapiens, UniProt P49336); assay: In vitro kinase inhibition assay (Reaction Biology HotSpot, 10 dose IC50 singlet); assay type: biochemical; settings: for IC50 / inhibition at 20 µM: CDK8/CycC; for IC50: 10 dose IC50 singlet assay; for inhibition at 20 µM: compound at 20 µM, read-out: % enzyme inhibition ± SD (20 µM)
T1 construct: purchased Reaction Biology Corp. (Kinase HotSpot service)
T1 sequence (P49336 whole entry): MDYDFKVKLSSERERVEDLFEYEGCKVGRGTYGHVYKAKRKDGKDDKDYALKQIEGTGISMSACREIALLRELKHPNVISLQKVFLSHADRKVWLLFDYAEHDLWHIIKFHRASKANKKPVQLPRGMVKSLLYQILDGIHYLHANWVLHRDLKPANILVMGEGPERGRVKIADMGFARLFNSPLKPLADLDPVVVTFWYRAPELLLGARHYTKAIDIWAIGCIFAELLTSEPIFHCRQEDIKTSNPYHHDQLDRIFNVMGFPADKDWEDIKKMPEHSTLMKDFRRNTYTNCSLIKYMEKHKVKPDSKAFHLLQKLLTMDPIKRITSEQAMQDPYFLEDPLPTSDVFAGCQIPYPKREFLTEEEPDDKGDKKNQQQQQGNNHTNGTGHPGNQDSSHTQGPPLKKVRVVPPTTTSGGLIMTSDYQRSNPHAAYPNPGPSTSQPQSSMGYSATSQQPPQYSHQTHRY
T1 sequence (P24863 whole entry partner): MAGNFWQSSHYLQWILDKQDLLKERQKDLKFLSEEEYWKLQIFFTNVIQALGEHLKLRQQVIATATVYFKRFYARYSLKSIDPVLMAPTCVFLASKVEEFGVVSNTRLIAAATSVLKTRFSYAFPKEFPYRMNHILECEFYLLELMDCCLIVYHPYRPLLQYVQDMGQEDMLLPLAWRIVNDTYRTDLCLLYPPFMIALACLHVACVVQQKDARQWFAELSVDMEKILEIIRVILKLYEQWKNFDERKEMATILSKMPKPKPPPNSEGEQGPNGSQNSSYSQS
Protocol: Reaction Biology Corp. Kinase HotSpotSM service (http://www.reactionbiology.com) was used for the screening of tested compounds. […] Activity of kinases were assessed by the HotSpot assay platform, which contained specific kinase/substrate pairs along with required cofactors ([Abdelazem et al., 2015]; [Abdelazem et al., 2016]; [Al-Sanea et al., 2016a]; [Al-Sanea et al., 2015a]; [Al-Sanea et al., 2015b]; [Al-Sanea, El-Deeb & Lee, 2013]; [Park et al., 2014]).
The newly prepared phenylaminoquinolines 5a–i were biologically evaluated as potential CDK8/CycC complex inhibitors.

CDK8 = settings: cited from earlier work
[1] = system: acute myeloid leukemia (AML); parameters: method as in earlier work; settings: ref Cee et al., 2009, Crown, 2017, Pelish et al., 2015, Rzymski et al.; cited from earlier work

IC50 (CDK8/CycC; read-out: IC50) [nM]	inhibition at 20 µM (CDK8/CycC) [%]	IC50 (CDK8/CycC)	SMILES	further results
639	88.6 ± 0.97		CCOC(=O)c1cnc2ccc(Br)cc2c1Nc1cccc(S(=O)(=O)NC)c1 [5d, Ethyl 6-Bromo-4-((3-(N-methylsulfamoyl)phenyl)amino)quinoline-3-carboxylate]	melting point: 212.9 to 214.3 °C
	18.7 ± 0.48	No inhibition	CCOC(=O)c1cnc2ccc(OC)cc2c1Nc1cccc(S(C)(=O)=O)c1 [5h, Ethyl 6-methoxy-4-((3-(methylsulfonyl)phenyl)amino)quinoline-3-carboxylate]	
	37.9 ± 1.31	failed to inhibit	CCOC(=O)c1cnc2cc(Cl)c(F)cc2c1Nc1cccc(S(N)(=O)=O)c1 [5c, Ethyl 7-chloro-6-fluoro-4-((3-sulfamoylphenyl)amino)quinoline-3-carboxylate]	
			CN1CCN(C(=O)c2ccc3cc(CCNc4ncnc5ccc(C#N)cc45)ccc3c2)CC1 [Senexin B]	IC50 (CDK8; ref McDermott et al., 2017, Rzymski et al., 2015, read-out: CDK8 modulation IC50): 24 nM
			CN(C)[C@H]1C[C@@]23CC[C@@]4(O2)C(=CC[C@]2(C)[C@@H](c5ccc6ccncc6c5)CC[C@H]24)C=C3[C@@H](O)[C@@H]1O [cortistatin A]	anticancer activity in animal models of AML [1]: exhibited anticancer activity; IC50 (CDK8; ATP-competitive, ref Cee et al., 2009, Crown, 2017, Pelish et al., 2015, Rzymski et al., read-out: CDK8 inhibitory activity IC50): 15 nM
1420	85.9 ± 0.94		CCOC(=O)c1cnc2ccc(OC)cc2c1Nc1cccc(NS(C)(=O)=O)c1 [5e, Ethyl 6-methoxy-4-((3-(methylsulfonamido)phenyl)amino)quinoline-3-carboxylate]	
5340	63.4 ± 2.31	single digit micromolar potency	CCOC(=O)c1cnc2ccc(OC)cc2c1Nc1cccc(S(N)(=O)=O)c1 [5b, Ethyl 6-methoxy-4-((3-sulfamoylphenyl)amino)quinoline-3-carboxylate]	
3980	83.9 ± 1.83	single digit micromolar potency	CCOC(=O)c1cnc2ccc(Br)cc2c1Nc1cccc(S(N)(=O)=O)c1 [5a, Ethyl 6-Bromo-4-(3-sulfamoyl-phenylamino)-quinoline-3-carboxylate]	fold decrease in potency relative to 5d (CDK8/CycC; CDK8/CycC IC50 of 5a compared with 5d): 6 fold; melting point: 235.6 to 237.2 °C

SMILES	IC50 (CDK8/CycC; read-out: IC50) [nM]	inhibition at 20 µM (CDK8/CycC) [%]	IC50 (CDK8/CycC)	further results
CCOC(=O)c1cnc2cc(Cl)c(F)cc2c1Nc1cccc(S(C)(=O)=O)c1 [5i, Ethyl 7-chloro-6-fluoro-4-((3-(methylsulfonyl)phenyl)amino)quinoline-3-carboxylate]		32 ± 0.82	failed to inhibit; also recorded: No inhibition	
CCOC(=O)c1cnc2cc(Cl)c(F)cc2c1Nc1cccc(NS(C)(=O)=O)c1 [5f, Ethyl 7-chloro-6-fluoro-4-((3-(methylsulfonamido)phenyl)amino)quinoline-3-carboxylate]		27.2 ± 8.46	failed to inhibit; also recorded: No inhibition	
CCOC(=O)c1cnc2ccc(Br)cc2c1Nc1cccc(S(C)(=O)=O)c1 [5g, Ethyl 6-Bromo-4-(3-methanesulfonylphenylamino)-quinoline-3-carboxylate]		22.4 ± 1.02	no CDK8/CycC complex inhibitory activity; also recorded: No inhibition	

From article PMC7075364, “Synthesis and biological evaluation of small molecule modulators of CDK8/Cyclin C complex with phenylaminoquinoline scaffold” (PeerJ, 2020)
